Measurements taken from patent publication US20240109903A1, “SUBSTITUTED HETEROCYCLES FOR TREATING CANCER” (Northwestern University, priority 2022, published 2024).
Read-outs that look alike come from different tables or passages of the source.

Experiments:
[1] = test system: OVCAR-5; experiment: NCI 60 five-dose screen OVCAR-5; type: cell-based; settings: Homo sapiens, five-dose
[2] = test system: HCT-116; experiment: NCI 60 five-dose screen HCT-116; type: cell-based; settings: Homo sapiens, five-dose
[3] = test system: K-562; experiment: NCI 60 five-dose screen K-562; type: cell-based; settings: Homo sapiens, K562, five-dose
[4] = test system: NCI-H322M; experiment: NCI 60 five-dose screen NCI-H322M; type: cell-based; settings: Homo sapiens, five-dose
[5] = test system: NCI-H226; experiment: NCI 60 five-dose screen NCI-H226; type: cell-based; settings: Homo sapiens, five-dose
[6] = test system: full NCI 60 cell panel; experiment: NCI 60 Cell One-dose screen; type: cell-based, human; settings: single high dose 10^−5 M, NCI 60 panel
From the text: Compounds were submitted to the NCI 60 Cell screen and tested at a single high dose (10^−5 M) in the full NCI 60 cell panel (see the following reference for details of using NCI 60 human tumor cell lines for screening anticancer drugs: Shoemaker R H. The NCI60 human tumor cell line anticancer drug screen. Nature Rev Cancer 2006; 6: 813-23). The One-dose data is reported as a mean graph of the percent growth of treated cells. The number reported for the One-dose assay is growth relative to the no-drug control, and relative to the time zero number of cells. This allows detection of both growth inhibition (values between 0 and 100) and lethality (values less than 0). For example, a value of 100 means no growth inhibition. A value of 40 would mean 60% growth inhibition. A value of 0 means no net growth over the course of the experiment. A value of −40 would mean 40% lethality. A value of −100 means all cells are dead. FIGS. 1-8 show the mean graph of percent growth against the NCI-60 cell panel for NUCC-0226674, NUCC-0226679, NUCC-0226680, NUCC-0226683, NUCC-0226689, NUCC-0226694, NUCC-0226695, and NUCC-0226698.

[7] = test system: CAKI-1; experiment: NCI 60 five-dose screen CAKI-1; type: cell-based; settings: Homo sapiens, five-dose
[8] = test system: HT29; experiment: NCI 60 five-dose screen HT29; type: cell-based; settings: Homo sapiens, HT-29, five-dose
[9] = test system: SNB-75; experiment: NCI 60 five-dose screen SNB-75; type: cell-based; settings: Homo sapiens, five-dose
[10] = test system: SR; experiment: NCI 60 five-dose screen SR; type: cell-based, human; settings: Homo sapiens, five-dose
[11] = test system: EKVX; experiment: NCI 60 five-dose screen EKVX; type: cell-based; settings: Homo sapiens, five-dose
[12] = test system: SK-MEL-5; experiment: NCI 60 five-dose screen SK-MEL-5; type: cell-based; settings: Homo sapiens, five-dose
[13] = test system: MDA-MB-231/ATCC; experiment: NCI 60 five-dose screen MDA-MB-231/ATCC; type: cell-based; settings: Homo sapiens, five-dose
[14] = test system: SF-268; experiment: NCI 60 five-dose screen SF-268; type: cell-based; settings: Homo sapiens, five-dose
[15] = test system: SF-295; experiment: NCI 60 five-dose screen SF-295; type: cell-based; settings: Homo sapiens, five-dose
[16] = test system: HOP-62; experiment: NCI 60 five-dose screen HOP-62; type: cell-based; settings: Homo sapiens, five-dose
[17] = test system: OVCAR-4; experiment: NCI 60 five-dose screen OVCAR-4; type: cell-based; settings: Homo sapiens, five-dose
[18] = test system: HOP-92; experiment: NCI 60 five-dose screen HOP-92; type: cell-based; settings: Homo sapiens, five-dose
[19] = test system: MV-4-11 acute myeloid leukemia cells; experiment: CellTiter-Glo 2.0 cell viability, MV-4-11; type: cell-based; settings: Homo sapiens
Protocol: 2019 October; 94(4): 1813-1823.
Cell viability was assessed using the CellTiter-Glo 2.0 assay from Promega, which yields a signal proportional to the amount of ATP present in a cell population. Compounds were first dispensed into empty 96-well flat-bottom tissue culture-treated plates (Corning) using an Echo550. MV4-1 cells were diluted to a density of 0.1 million cells per ml, pipetted onto the compounds at a density of 1,000 cells per well for U937 and 3,000 cells per well for MV4-11, mixed, and incubated for 3 days at 37° C. with 5% C02. After incubating, 5 μl of cells from each well were added to 5 μl of CellTiter-Glo 2.0 reagent in a384-well white ProxiPlate (PerkinElmer), incubated for 20 minutes at ambient temperature, and luminescence was analyzed on an EnSpire plate reader. Graphing and regression analysis was performed in Graphpad Prism.

[20] = test system: HCT-15; experiment: NCI 60 five-dose screen HCT-15; type: cell-based; settings: Homo sapiens, five-dose
[21] = read-out: LC50 (the source's name) (converted)
[22] = read-out: LC50 (the source's name)

Q: For `FC(F)(F)CN1CCN(CCn2c(C(F)(F)F)cc3c(Cl)ncnc32)CC1` [NUCC-0226683], which GI50 [1] is on record?
A: 100 µM

Q: And the IC50 [1]?
A: 100 µM

Q: What about the IC (TGI) [1] of the same compound?
A: 100 µM

Q: What about the CC50 [1, 21] of the same compound?
A: ≥ 100 µM

Q: And the GI50 [2]?
A: 3.16 µM

Q: What about the IC50 [2] of the same compound?
A: 3.72 µM

Q: And the IC (TGI) [2]?
A: 13.2 µM

Q: What about the CC50 [2, 21] of the same compound?
A: 64.6 µM

Q: What about the GI50 [3] of the same compound?
A: 2.82 µM

Q: What about the IC50 [3] of the same compound?
A: 3.47 µM

Q: What about the IC (TGI) [3] of the same compound?
A: 100 µM

Q: What about the CC50 [3, 22] of the same compound?
A: ≥ 100 µM

Q: What about the GI50 [4] of the same compound?
A: 5.5 µM

Q: And the IC50 [4]?
A: 15.8 µM

Q: And the IC (TGI) [4]?
A: 19.1 µM

Q: What about the CC50 [4, 21] of the same compound?
A: 44.7 µM

Q: What about the GI50 [5] of the same compound?
A: 17.4 µM

Q: What about the IC50 [5] of the same compound?
A: 100 µM

Q: What about the IC (TGI) [5] of the same compound?
A: 72.4 µM

Q: And the CC50 [5, 21]?
A: ≥ 100 µM

Q: What about the “growth inhibition in the One-Dose Screen” value [6] of the same compound?
A: significant growth inhibition

Q: And the GI50 [7]?
A: 13.5 µM

Q: And the IC50 [7]?
A: 25.7 µM

Q: What about the IC (TGI) [7] of the same compound?
A: 30.9 µM

Q: And the CC50 [7, 21]?
A: 69.2 µM

Q: And the GI50 [8]?
A: 5.5 µM

Q: And the IC50 [8]?
A: 7.41 µM

Q: And the IC (TGI) [8]?
A: 36.3 µM

Q: And the CC50 [8, 21]?
A: ≥ 100 µM

Q: And the GI50 [9]?
A: 3.09 µM

Q: And the IC50 [9]?
A: 14.8 µM

Q: And the IC (TGI) [9]?
A: 14.1 µM

Q: And the CC50 [9, 21]?
A: 38.9 µM

Q: What about the GI50 [10] of the same compound?
A: 2.14 µM

Q: And the IC50 [10]?
A: 3.55 µM

Q: What about the CC50 [10, 22] of the same compound?
A: ≥ 100 µM

Q: And the GI50 [11]?
A: 11.7 µM

Q: And the IC50 [11]?
A: 28.8 µM

Q: What about the IC (TGI) [11] of the same compound?
A: 40.7 µM

Q: What about the CC50 [11, 21] of the same compound?
A: ≥ 100 µM

Q: What about the GI50 [12] of the same compound?
A: 3.72 µM

Q: What about the IC50 [12] of the same compound?
A: 6.17 µM

Q: And the IC (TGI) [12]?
A: 13.8 µM

Q: What about the CC50 [12, 21] of the same compound?
A: 37.2 µM

Q: What about the GI50 [13] of the same compound?
A: 1.78 µM

Q: What about the IC50 [13] of the same compound?
A: 3.39 µM

Q: And the IC (TGI) [13]?
A: 4.27 µM

Q: What about the CC50 [13, 21] of the same compound?
A: 11.5 µM

Q: What about the GI50 [14] of the same compound?
A: 5.25 µM

Q: And the IC50 [14]?
A: 11.5 µM

Q: And the IC (TGI) [14]?
A: 21.4 µM

Q: And the CC50 [14, 21]?
A: 70.8 µM

Q: And the GI50 [15]?
A: 10.2 µM

Q: And the IC50 [15]?
A: 17.8 µM

Q: And the IC (TGI) [15]?
A: 25.7 µM

Q: What about the CC50 [15, 21] of the same compound?
A: 64.6 µM

Q: What about the GI50 [16] of the same compound?
A: 13.8 µM

Q: And the IC50 [16]?
A: 28.8 µM

Q: What about the IC (TGI) [16] of the same compound?
A: 32.4 µM

Q: What about the CC50 [16, 21] of the same compound?
A: 75.9 µM

Q: And the GI50 [17]?
A: 26.9 µM

Q: And the IC50 [17]?
A: 89.1 µM

Q: What about the IC (TGI) [17] of the same compound?
A: 100 µM

Q: What about the CC50 [17, 21] of the same compound?
A: ≥ 100 µM

Q: And the GI50 [18]?
A: 12.9 µM

Q: And the IC50 [18]?
A: 32.4 µM

Q: And the IC (TGI) [18]?
A: 29.5 µM

Q: And the CC50 [18, 21]?
A: 66.1 µM

Q: What about the IC50 ([19]; MV4-11, 72 h, MV-4-11 cells, 3 days, CellTiter-Glo 2.0, read-out: IC50 (uM) [Cell Type: MV-4-11]) of the same compound?
A: 1.83 µM

Q: What about the IC50 ([19]; MV4-11, bound stated in text, read-out: IC50 against MV-4-11 acute myeloid leukemia cells) of the same compound?
A: < 2 µM

Q: And the GI50 [20]?
A: 2.57 µM

Q: What about the IC50 [20] of the same compound?
A: 3.55 µM

Q: What about the IC (TGI) [20] of the same compound?
A: 7.41 µM

Q: And the CC50 [20, 21]?
A: 50.1 µM
